The record followed here is patent US10647711B2, “Azepin-2-one derivatives as RSV inhibitors” (Enanta Pharmaceuticals, Inc., priority 2017, dated 2020).

Molecules are shown by their SMILES. Some results are limits rather than exact numbers.

The term EC50 denotes the concentration needed to bring the measured effect to its halfway point.

In this test the test system is Human RSV-A (“Long” strain). Nature of the test: RSV-A in vitro cytoprotection assay in HEp-2 cells (ATPlite readout). Type of test: cell-based. The following applies: human respiratory syncytial virus, 96 h, 4-day incubation, ATPlite cell viability (CPE protection). From the text:
RSV is a single stranded negative sense RNA virus that causes respiratory tract infections which can be dangerous to infants, the elderly, and immunosuppressed individuals. Currently there is no vaccine, and therapeutic options are both costly and of limited effectiveness. These approved treatments are Ribavirin, and Palivizumab/Synagis (a monoclonal antibody). RSV has two genotypes, A and B, which differ primarily in the structure of the virus' surface “G” attachment protein. Our current primary screen focusses on RSV-A and uses an in vitro cytoprotection assay where compounds are added in 2-fold dilutions to cells which are then subjected to fully replicative viral particles. Cell viability is measured several days later along with separate measurements of compound cytotoxicity. This report focuses on the results of our most recent screening of compounds.
HEp-2 cells, (originally derived from tumors grown in irradiated-cortisonised weanling rats that had been injected with epidermoid carcinoma tissue from a person's larynx, but later found to be indistinguishable from HeLa cells by PCR DNA analysis), were used for the culturing of genotype A, “Long” strain RSV. Flasks were inoculated with RSV and viral stocks were collected once cytopathic effect (CPE) was greater than 90%. Viral stocks in 25% sucrose media were snap frozen using liquid nitrogen to increase viral stability. Viral stock titers were quantified by tissue culture infectious dose 50% (TCID50) using 8,000 cells per well and 3-fold viral dilutions across a 96-well plate, cultured for 4 days.
Following extensive parameter testing, the final assay is run as follows: HEp-2 cells are seeded into the inner 60 wells of a 96-well plate at 8,000 cells per well in a volume of 50 μL using Growth Media (DMEM without phenol red, 1% L-Glut, 1% Penn/Strep, 1% nonessential amino acids, 10% FBS). 2-fold serial dilutions of control and test compounds are added to the wells in duplicate in a total volume of 25 μL. Viral stock is then added to the wells in a volume of […] the total volume of each well to 100 μL. Each 96-well plate has a control column of 6 wells with cells and virus but no compound (negative control, max CPE), a column with cells but no compound or virus (positive control, minimum CPE), and a column with no cells or virus or compound (background plate/reagent control). The control wells with cells but no virus are given an additional 25 uL of growth media containing an equal quantity of sucrose as those wells receiving the viral stock in order to keep consistent in media and volume conditions. The outer wells of the plate are filled with 125 μL of growth media to act as a thermal and evaporative moat around the test wells. Following a 4-day incubation period, the plates are read using ATPlite (50 uL added per well), which quantifies the amount of ATP (a measure of cell health) present in each well. Assay plates are read using the Envision luminometer. […] EC50 ranges are as follows: A<1 μM; B 1-5 μM; C>5 μM.
For orientation: In ATP-based viability assays light output follows the ATP content of the culture.
Regarding `O=C1Nc2ccccc2C(c2ccccc2)=C[C@@H]1Nc1nnc(-c2ccc(F)cc2)o1` [Example 1, (S)-3-((5-(4-fluorophenyl)-1,3,4-oxadiazol-2-yl)amino)-5-phenyl-1,3-dihydro-2H-benzo[b]azepin-2-one], the concentration for a half-maximal effect (EC50) lay within 1000 to 5000 nM.

Turning to `O=C1Nc2ccccc2C(c2ccccc2)=C[C@@H]1Nc1nnc(-c2cn(-c3ccccn3)nc2N2CCOCC2)o1` [Example 2], the EC50 lay in the range of 1000 to 5000 nM. Turning to `O=C1Nc2ccccc2C(c2ccccc2)=C[C@@H]1Nc1nnc(-c2ccc(N3CCOCC3)cc2F)o1` [Example 3], the EC50 is 1000 to 5000 nM.

Take `O=C1Nc2ccccc2C(c2ccccc2)=C[C@@H]1Nc1nnc(-c2cccnc2N2CCOCC2)o1` [Example 4]: the EC50 was 1000 to 5000 nM. In the case of `O=C1Nc2ccccc2C(c2ccccc2)=C[C@@H]1Nc1nnc(-c2ncc(C3CC3)cc2N2CCOCC2)o1` [Example 5], the EC50 was under 1000 nM.

As for `C#Cc1cnc(-c2nnc(N[C@H]3C=C(c4ccccc4)c4ccccc4NC3=O)o2)c(N2CCOCC2)c1` [Example 6], the concentration for a half-maximal effect (EC50) was under 1000 nM. The same measure for `O=C1Nc2ccccc2C(c2ccccc2)=C[C@@H]1Nc1nnc(-c2ncc(Br)cc2N2CCOCC2)o1` [Example 7]: under 1000 nM. `N#Cc1cnc(-c2nnc(N[C@H]3C=C(c4ccccc4)c4ccccc4NC3=O)o2)c(N2CCOCC2)c1` [Example 8] registered an EC50 of under 1000 nM.

On to `O=C1Nc2ccccc2C(c2ccccc2)=C[C@@H]1Nc1nnc(-c2ncc(C3CCC3)cc2N2CCOCC2)o1` [Example 9], for which the EC50 was in the range of 1000 to 5000 nM.

For the compound `O=C1Nc2ccccc2C(c2ccccc2)=C[C@@H]1Nc1nnc(-c2ncc(C(F)(F)F)cc2N2CCOCC2)o1` [Example 10], the EC50 is under 1000 nM. `O=C1Nc2ccccc2C(c2ccccc2)=C[C@@H]1Nc1nnc(-c2nc(C3CC3)sc2N2CCOCC2)o1` [Example 11, (S)-3-((5-(2-cyclopropyl-5-morpholinothiazol-4-yl)-1,3,4-oxadiazol-2-yl)amino)-5-phenyl-1,3-dihydro-2H-benzo[b]azepin-2-one]: the EC50 was under 1000 nM. In turn, `O=C1Nc2ccccc2C(c2ccccc2)=C[C@H]1Nc1nnc(-c2nc(C3CC3)sc2N2CCOCC2)o1` [Example 12, (R)-3-((5-(2-cyclopropyl-5-morpholinothiazol-4-yl)-1,3,4-oxadiazol-2-yl)amino)-5-phenyl-1,3-dihydro-2H-benzo[b]azepin-2-one] registered an EC50 of under 1000 nM. Compound `O=C1Nc2ccccc2C(c2ccccc2)=C[C@@H]1Nc1nnc(-c2nc(-c3cccnc3)sc2N2CCOCC2)o1` [Example 13, (S)-3-((5-(5-morpholino-2-(pyridin-3-yl)thiazol-4-yl)-1,3,4-oxadiazol-2-yl)amino)-5-phenyl-1,3-dihydro-2H-benzo[b]azepin-2-one] showed a concentration giving a half-maximal response (EC50) of under 1000 nM. As for `O=C1Nc2ccccc2C(c2ccccc2)=C[C@H]1Nc1nnc(-c2nc(-c3cccnc3)sc2N2CCOCC2)o1` [Example 14, (R)-3-((5-(5-morpholino-2-(pyridin-3-yl)thiazol-4-yl)-1,3,4-oxadiazol-2-yl)amino)-5-phenyl-1,3-dihydro-2H-benzo[b]azepin-2-one], the EC50 lay in the range of 1000 to 5000 nM.

`O=C(Nc1ccccc1F)N[C@H]1C=C(c2ccccc2)c2ccccc2NC1=O` [Example 15, (S)-1-(2-fluorophenyl)-3-(2-oxo-5-phenyl-2,3-dihydro-1H-benzo[b]azepin-3-yl)urea] displayed an EC50 of over 5000 nM. Compound `O=C1Nc2ccccc2C(c2ccccc2)=C[C@@H]1Nc1nc2ccccc2o1` [Example 16, (S)-3-(benzo[d]oxazol-2-ylamino)-5-phenyl-1,3-dihydro-2H-benzo[b]azepin-2-one] registered an EC50 of over 5000 nM. As to `O=C(N[C@H]1C=C(c2ccccc2)c2ccccc2NC1=O)c1ccccc1` [Example 17, (5)-N-(2-oxo-5-phenyl-2,3-dihydro-1H-benzo[b]azepin-3-yl)benzamide], the EC50 was over 5000 nM.
